Laboratory results taken from ChEMBL document CHEMBL1201862, “PubChem BioAssay data set” (2004).
Active and inactive are the calls of the source.

Columns and labels:
[1] = microbe, parasite or virus in culture; type: functional; settings: Mycobacterium tuberculosis
[2] = target: T1, Heat shock factor protein 1 (Mus musculus, UniProt P38532); assay: HSF1 potentiators in luciferase reporter cells, confirmation, cell-based, NIH3T3, luminescence, dose retest (AID 435004); type: functional;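 also: stress induced by proteasome inhibitor MG132 added 30 min after compound; luciferase reporter driven by HSF1 response element in NIH3T3 cells; actives raise luminescence as potentiators of the MG132 stress response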
T1 sequence (P38532 whole entry): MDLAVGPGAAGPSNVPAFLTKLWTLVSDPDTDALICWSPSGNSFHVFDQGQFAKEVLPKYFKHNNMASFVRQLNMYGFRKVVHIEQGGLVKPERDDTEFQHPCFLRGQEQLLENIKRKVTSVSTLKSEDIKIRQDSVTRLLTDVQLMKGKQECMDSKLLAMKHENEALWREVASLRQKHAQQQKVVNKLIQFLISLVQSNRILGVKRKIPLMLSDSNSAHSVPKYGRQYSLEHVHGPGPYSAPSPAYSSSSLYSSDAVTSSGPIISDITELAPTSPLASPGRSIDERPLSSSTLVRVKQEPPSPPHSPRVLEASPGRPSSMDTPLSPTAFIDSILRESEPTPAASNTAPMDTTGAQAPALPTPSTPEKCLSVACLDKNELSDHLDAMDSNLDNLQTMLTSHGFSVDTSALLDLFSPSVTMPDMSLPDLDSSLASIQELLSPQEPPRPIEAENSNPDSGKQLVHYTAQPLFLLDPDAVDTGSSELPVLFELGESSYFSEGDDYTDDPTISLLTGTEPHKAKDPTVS

[3] = target: T2, RNA-binding protein pos-1 (Caenorhabditis elegans, UniProt G5EF15); assay: inhibitors of POS-1/mex-3 RNA binding, dose response, biochemical, fluorescence polarization (AID 1964);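 also: purified POS-1 fused to maltose binding protein made in E. coli; potency of compounds blocking POS-1 binding to fluorescent RNA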
T2 sequence (G5EF15 whole entry): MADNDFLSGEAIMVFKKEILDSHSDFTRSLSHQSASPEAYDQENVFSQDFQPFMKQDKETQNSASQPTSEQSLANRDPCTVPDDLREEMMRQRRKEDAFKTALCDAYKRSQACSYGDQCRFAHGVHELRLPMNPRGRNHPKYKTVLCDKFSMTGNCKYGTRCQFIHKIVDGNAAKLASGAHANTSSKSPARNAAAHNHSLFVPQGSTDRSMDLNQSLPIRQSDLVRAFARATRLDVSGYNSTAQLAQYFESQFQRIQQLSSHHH

[4] = target: T3, Zinc finger protein mex-5 (Caenorhabditis elegans, UniProt Q9XUB2); assay: MEX-5/TCR-2 RNA interaction inhibitors, dose response, biochemical, C. elegans, fluorescence polarization (AID 1960)
T3 sequence (Q9XUB2 whole entry): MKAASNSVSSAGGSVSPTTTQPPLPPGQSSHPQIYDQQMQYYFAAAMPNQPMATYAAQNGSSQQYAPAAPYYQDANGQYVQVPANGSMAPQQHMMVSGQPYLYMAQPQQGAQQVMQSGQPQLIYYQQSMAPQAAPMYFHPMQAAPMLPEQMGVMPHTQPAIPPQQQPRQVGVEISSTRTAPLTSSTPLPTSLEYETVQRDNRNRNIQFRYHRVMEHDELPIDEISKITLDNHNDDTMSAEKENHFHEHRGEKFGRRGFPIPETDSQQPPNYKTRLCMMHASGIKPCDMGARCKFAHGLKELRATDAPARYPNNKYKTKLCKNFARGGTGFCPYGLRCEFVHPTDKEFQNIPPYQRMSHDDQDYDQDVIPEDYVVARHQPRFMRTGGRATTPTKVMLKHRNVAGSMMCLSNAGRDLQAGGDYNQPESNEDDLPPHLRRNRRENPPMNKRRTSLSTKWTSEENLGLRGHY

[5] = cells; type: functional
[6] = target: T4, Replicative DNA helicase DnaB (Mycobacterium tuberculosis, UniProt P9WMR3); assay: DnaB intein splicing inhibitors, dose response, biochemical, cell-free fluorescence (AID 449749); type: functional
T4 sequence (P9WMR3 whole entry): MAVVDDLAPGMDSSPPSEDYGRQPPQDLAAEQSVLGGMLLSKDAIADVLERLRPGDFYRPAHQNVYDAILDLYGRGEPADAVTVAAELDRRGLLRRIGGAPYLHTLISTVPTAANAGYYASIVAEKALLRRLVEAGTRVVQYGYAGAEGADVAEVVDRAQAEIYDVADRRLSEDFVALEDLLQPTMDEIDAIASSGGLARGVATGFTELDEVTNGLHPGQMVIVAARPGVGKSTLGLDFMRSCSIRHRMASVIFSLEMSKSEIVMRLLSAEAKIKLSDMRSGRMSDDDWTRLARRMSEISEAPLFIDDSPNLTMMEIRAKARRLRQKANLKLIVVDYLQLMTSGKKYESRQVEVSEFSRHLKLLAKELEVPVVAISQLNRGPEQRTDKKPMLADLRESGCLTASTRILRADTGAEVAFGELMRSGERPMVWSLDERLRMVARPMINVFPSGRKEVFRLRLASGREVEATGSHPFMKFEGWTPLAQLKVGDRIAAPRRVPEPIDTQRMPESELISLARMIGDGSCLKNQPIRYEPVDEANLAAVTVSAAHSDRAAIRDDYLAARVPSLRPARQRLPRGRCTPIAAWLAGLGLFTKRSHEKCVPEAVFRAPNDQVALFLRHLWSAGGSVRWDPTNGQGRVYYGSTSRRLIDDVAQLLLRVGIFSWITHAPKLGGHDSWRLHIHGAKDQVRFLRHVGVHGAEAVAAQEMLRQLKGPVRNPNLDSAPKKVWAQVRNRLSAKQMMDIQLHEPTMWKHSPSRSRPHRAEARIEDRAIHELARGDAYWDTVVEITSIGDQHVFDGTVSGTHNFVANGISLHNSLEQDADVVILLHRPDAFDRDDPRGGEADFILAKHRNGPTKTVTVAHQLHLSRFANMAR

[7] = target: T5, Protein RecA (Mycobacterium tuberculosis, UniProt P9WHJ3); assay: Fluorescence Cell-Free Homogeneous Dose Retest to Identify Inhibitors of RecA-Intein Splicing Activity. [Related pubchem assays (depositor defined):AID2097, AID2223, AID489010, AID492950]; type: functional
T5 sequence (P9WHJ3 whole entry): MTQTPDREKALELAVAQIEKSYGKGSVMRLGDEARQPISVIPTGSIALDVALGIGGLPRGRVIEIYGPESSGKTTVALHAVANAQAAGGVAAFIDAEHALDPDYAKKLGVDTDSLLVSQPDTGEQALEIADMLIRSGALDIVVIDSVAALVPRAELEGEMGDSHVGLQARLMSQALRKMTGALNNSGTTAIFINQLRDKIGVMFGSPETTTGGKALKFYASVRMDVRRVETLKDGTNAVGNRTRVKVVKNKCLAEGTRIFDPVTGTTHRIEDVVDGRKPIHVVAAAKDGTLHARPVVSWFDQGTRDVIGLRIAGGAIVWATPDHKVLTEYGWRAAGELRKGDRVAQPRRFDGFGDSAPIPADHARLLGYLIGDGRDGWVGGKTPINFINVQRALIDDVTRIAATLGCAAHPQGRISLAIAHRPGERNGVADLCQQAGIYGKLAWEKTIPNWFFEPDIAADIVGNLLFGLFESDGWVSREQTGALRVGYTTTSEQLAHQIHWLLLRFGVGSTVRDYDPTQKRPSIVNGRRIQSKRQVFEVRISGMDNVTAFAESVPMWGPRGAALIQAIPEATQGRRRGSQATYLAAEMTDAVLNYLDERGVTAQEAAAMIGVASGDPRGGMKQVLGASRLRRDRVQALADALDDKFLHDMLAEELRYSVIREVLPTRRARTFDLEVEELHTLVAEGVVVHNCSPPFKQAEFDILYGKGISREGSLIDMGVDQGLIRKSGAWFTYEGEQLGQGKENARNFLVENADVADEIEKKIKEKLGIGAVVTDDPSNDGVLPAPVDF

[8] = Luminescence Cell-Based Dose Response HTS to Identify Activators of Luciferase Translation or Activity in H4 […] Cells. [Related pubchem assays: 1829 (Project Summary), 1814 (Primary HTS)]; type: functional
[9] = system: H4; assay: Luminescence Cell-Based Dose Response HTS to Identify Activators of 5'UTR Stem-Loop Driven Prion Protein mRNA Translation in H4 Neuroglioblastoma Cells. [Related pubchem assays: 1829 (Project Summary), 1814 (Primary HTS)]; type: functional; settings: Homo sapiens
[10] = Luminescence Cell-Based Dose Confirmation HTS to Identify Activators of 5'UTR Stem-Loop Driven Alpha-Synuclein mRNA Translation in H4 Neuroglioblastoma Cells. [Related pubchem assays: 1829 (Project Summary), 1814 (Primary HTS)]; type: functional
[11] = Luminescence Cell-Based Dose Retest to Confirm Inhibitors of Cancer Stem Cells. [Related pubchem assays (depositor defined):AID2717, AID2721]; type: functional; settings: Homo sapiens
[12] = system: Vero; assay: cells; type: functional; settings: Chlorocebus sabaeus
[13] = target: T6, Ubiquitin-conjugating enzyme E2 N (Homo sapiens, UniProt P61088); type: functional;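 also: Dose-response confirmation in a TR-FRET assay detecting UBC13-driven polyubiquitin chain formation, inhibition measured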
T6 sequence (P61088 whole entry): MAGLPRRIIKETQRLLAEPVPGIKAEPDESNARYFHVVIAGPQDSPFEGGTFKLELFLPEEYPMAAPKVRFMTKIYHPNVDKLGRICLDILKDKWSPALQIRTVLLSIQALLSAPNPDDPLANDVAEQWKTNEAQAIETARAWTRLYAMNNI

[14] = system: H9c2; assay: cells; type: functional, cell-based; settings: Rattus norvegicus, H9c2, Myocardium;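 also: confirmatory concentration-response retest of ultra-high-throughput screening hits for modulation of myocardial damage; cell death induced by hydrogen peroxide oxidative stress; compound pretreatment for 60 min then peroxide exposure for 2 h; potency is for protecting the cells against peroxide damage rather than for killing them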

In the case of `CCC(=O)Oc1ccc(C(=O)Nc2ccc3c(c2)C(=O)N(C2CCCCC2)C3=O)cc1`, the CC50 [1] is reported as 39.9 µM (active).

For `Nc1nnc(SCc2c(F)cccc2Cl)s1`, the EC50 [2] was > 260 µM (inactive).

In the case of `CCO[C@H]1OC(C(=O)NCc2nc3ccccc3[nH]2)=C[C@@H](c2csc3ccccc23)[C@@H]1CCCO`, the CC50 [1] is reported as > 40 µM (active).

For `COc1ccc(C2NC(=O)CCC2[N+](=O)[O-])c(OC)c1` (stereo unspecified), the EC50 [2] was > 260 µM (inactive).

For `COc1c(O)cccc1[C@@H](O)C1CCN(CCc2ccc(F)cc2)CC1`, the EC50 [3] was 13.8 µM (active) and the EC50 [4] was 14.1 µM (inconclusive).

For `COC(=O)CCCCCN1C(=O)/C(=C\c2ccncc2)SC1=S`, the IC50 [5] was 7.86 µM (active), the AC50 [6] was 12.2 µM (active) and the EC50 [7] was 17.7 µM (active).

In the case of `COc1ccc(C2=NOC(COC(=O)c3ccc4ccccc4n3)C2)cc1` (stereo unspecified), the IC50 [5] is reported as 9.07 µM (active), the EC50 [8] is reported as > 120 µM (not active) and the EC50 [9] is reported as 4.71 µM (active). The EC50 [10] was 17.2 µM (active).

In the case of `CCc1ccc(C(=O)NNC(=O)c2ccc(=O)n(C)n2)cc1`, the EC50 [3] is reported as > 300 µM (not active) and the EC50 [4] is reported as 6.42 µM (active).

With `CN(Cc1ccco1)c1ncnc2ccc(-c3ccc4c(ccn4C)c3)cc12` the CC50 [1] was 15.4 µM (active) and the AC50 [11] was 0.499 µM (active).

With `Cc1ccccc1C(CC(=O)c1cccs1)C(C#N)C#N` (stereo unspecified) the CC50 [12] was 17 µM (active), the AC50 [6] was > 380 µM (inconclusive) and the EC50 [7] was 1.17 µM (active).

In the case of `CC(=O)OCCN(C)c1cc(SC(C)C)c2nonc2c1[N+](=O)[O-]`, the IC50 [5] is reported as 41.4 µM (active), the AC50 [6] is reported as > 380 µM (inactive) and the EC50 [7] is reported as > 380 µM (inactive).

With `COC(=O)CC1C(=O)NCCN1C(=O)c1ccc(S(=O)(=O)N2CCOCC2)cc1` (stereo unspecified) the EC50 [2] was > 260 µM (inactive).

In the case of `Nc1ccc2cc(Br)ccc2c1`, the IC50 [5] is reported as 25.7 µM (active).

With `CCn1nnc(NC(=O)c2ccc(-c3ccc(Cl)cc3)o2)n1` the IC50 [5] was > 50 µM (active).

For `COc1ccc(/C=C2/Sc3ccc(C(=O)NCCN4CCCCCC4)cc3NC2=O)cc1`, the IC50 [13] was > 20 µM (inactive).

With `CC(C)(C)OC(=O)NCCCCCc1nnc(SCc2ccc(F)cc2)o1` the CC50 [1] was > 40 µM (active).

In the case of `COc1ccc2[nH]c(C(=O)N3CCC(CO)(Cc4cccc(C(F)(F)F)c4)CC3)c(C)c2c1`, the CC50 [12] is reported as > 25 µM (active).

For `COc1ccccc1-c1sc2cc3c(cc2c1C#Cc1cncn1C)OCO3`, the AC50 [11] was 4.18 µM (active) and the IC50 [13] was > 20 µM (inactive).

For `CN1CCN(CCCNC(=O)c2cn(C3CCCCC3)c(=O)c3c2c2ccccc2n3C)CC1`, the IC50 [13] was > 20 µM (inactive).

With `CSC1=NC(/C=C/c2ccc(Cl)cc2)=CC(C)(C)N1` the CC50 [1] was 11.1 µM (active), the EC50 [8] was > 120 µM (not active) and the EC50 [9] was > 120 µM (not active). For the same compound, the EC50 [10] was 14.3 µM (active).

With `O=C(O)c1cccc(S(=O)(=O)N2CCC(n3nnc4cc(C(F)(F)F)ccc43)CC2)c1` the EC50 [2] was > 260 µM (inactive).

In the case of `CC(C)Cc1cc(C(=O)Nc2ccc(F)cc2F)no1`, the IC50 [5] is reported as 12 µM (active).

For `CCc1cc(C(c2ccccc2OC)N2CCOCC2)c(NC(=O)c2ccccc2)s1` (stereo unspecified), the EC50 [2] was 7.34 µM (active).

For `Cc1ccc(C(=O)CSc2nc3c(=O)n(C)c(=O)n(C)c3[nH]2)cc1`, the EC50 [3] was > 300 µM (not active) and the EC50 [4] was > 300 µM (not active).

In the case of `COc1ccc(C(=O)C2CCCN(Cc3ccc(C)s3)C2)c(OC)c1` (stereo unspecified), the EC50 [2] is reported as > 260 µM (inactive).

In the case of `NC(=O)COc1ccccc1`, the EC50 [2] is reported as > 260 µM (inactive).

In the case of `O=C(N/N=C/C=C/c1cccc([N+](=O)[O-])c1)c1ccncc1`, the IC50 [5] is reported as 34.9 µM (active).

For `O=C(N/N=C/c1ccc(-c2cccc([N+](=O)[O-])c2)o1)c1ccc([N+](=O)[O-])cc1`, the EC50 [3] was > 300 µM (not active), the IC50 [14] was > 79 µM (inactive) and the EC50 [4] was > 300 µM (not active).

In the case of `CC(/C=C/c1cccc([N+](=O)[O-])c1)=N\NC(=O)c1ccncc1`, the IC50 [5] is reported as 0.94 µM (active).

For `Cc1cccc(C(=O)Oc2ccc(/C=N/NC(=O)Cc3ccc([N+](=O)[O-])cc3)cc2)c1`, the IC50 [13] was > 20 µM (inactive).

With `O=C(O)CCC(=O)NNc1nc(-c2ccccc2)c2cc(Cl)ccc2n1` the EC50 [3] was > 300 µM (not active) and the EC50 [4] was 9.18 µM (active).
